Target: S-adenosylmethionine synthase isoform type-2 (Homo sapiens) (UniProt P31153)
Assay: PubChem AID 508
Settings: recombinant MAT2A, DSF SYPRO orange Tm shift; at 10 µM; protein 2 µM; buffer 25 mM HEPES; pH 7.5; 75mM NaCl; 100uM ATPgammaS; Adenosine 5'-[gamma-thio]triphosphate tetralithium salt; hits give high values

S-adenosylmethionine synthase isoform type-2 (Homo sapiens), sequence (P31153 whole entry, looked up, canonical isoform): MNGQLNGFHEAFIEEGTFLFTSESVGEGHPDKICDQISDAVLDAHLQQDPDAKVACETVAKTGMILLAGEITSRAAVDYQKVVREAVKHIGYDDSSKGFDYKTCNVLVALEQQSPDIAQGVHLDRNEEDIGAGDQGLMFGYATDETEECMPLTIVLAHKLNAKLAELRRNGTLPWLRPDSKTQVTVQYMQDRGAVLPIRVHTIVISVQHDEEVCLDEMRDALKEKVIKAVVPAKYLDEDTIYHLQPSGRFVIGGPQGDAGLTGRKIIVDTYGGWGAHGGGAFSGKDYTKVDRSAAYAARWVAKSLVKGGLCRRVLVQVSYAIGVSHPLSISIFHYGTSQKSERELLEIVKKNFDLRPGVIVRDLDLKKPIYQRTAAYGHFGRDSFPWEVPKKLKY

Tm shift: 2.1 Celsius
Structure (SMILES): CSCCC(N)C(=O)O (stereo unspecified)

Source: PubChem BioAssay AID508
